# Measurements: patent US9888679B2, “Protection of progenitor cells and regulation of their differentiation” (Proteobioactives Pty Ltd, priority 2007, dated 2018)
# What was measured:
# Type in all cases: cell-based
# human progenitor cells = test: Proteoglycan biosynthesis (35S-GAG) in 2 day monolayer cultures; conditions: monolayers; FIG. 11
# Text: FIG. 11. A bar graph of the concentration dependent effects of Pentosan Polysulfate (PPS), on the biosynthesis of Proteoglycans (PGs) as determined by the incorporation of radioactively labelled sulfate into the sulfated glycosaminoglycans (^35S-GAG) of PGs after 2 day monolayer cultures of human progenitor cells. The data was expressed as ^35S-GAG radioactivity as decays per minute (DPM) normalised to DNA content. *=p<0.05; **=p<0.005; ***=p<0.0005.
# Murine Progenitor cells (cell lines C3H10T1/2 or ATDC5) purchased from RIKEN Cell Bank (Tsukuba, Japan) or human immunoselected Stro-1+ Progenitor cells (Mesoblast Ltd, Melbourne, Australia) were seeded into 50 mL plastic culture flasks containing 1:1 high glucose DMEM/Ham's F-12 medium (Invitrogen) supplemented with 10% FBS (Sigma) and incubated at 37° C., in 5% CO2. After confluence was reached, progenitor cells were released by trypsinization and harvested by centrifugation. Cells were inoculated to 96-well or 24-well plates at a density of 3×10^4 cells or 2×10^5 cells per well. […] The experiments were generally terminated after 48 hours incubation when proteoglycan biosynthesis was determined by measuring the incorporation of ^35SO4 into the glycosaminoglycans (^35S-GAGs) as described below.
# The data was expressed as ^35S-GAG radioactivity as decays per minute (DPM) normalised to DNA content. *=p<0.05; **=p<0.005; ***=p<0.0005.
# [1] = system: Primary human progenitor cells; test: Differentiation in osteogenic media: mineralisation assay; conditions: for differentiation into osteoblasts/osteocytes: osteogenic media, particularly at 1 and 10 micrograms PPS/mL, FIG. 7
# Experimental: FIG. 7. The Effects of Pentosan Polysulfate (PPS) on Human progenitor cell Differentiation: Mineralisation Assay. Primary human progenitor cells were cultured in 96 wells plates in non-osteoinductive growth media (media control) or in osteoinductive conditions (alphaMEM supplemented with 10% FCS, 100 microM L-ascorbate-2-phosphate, dexamethasone 10^−7 M and 3 mM inorganic phosphate) in the presence of PPS at the indicated concentrations. On day 28, the concentration of acid solubilisd calcium per well was determined using the Cresolphthalein Complexone method. (A) The concentration of acid solubilised calcium per microg of DNA/well was determined following the assessment of the total amount of DNA per well using a fluorogenic DNA stain (Hoeshst 33258). […] (B) Phase-contrast photomicrographs of mineralised cultures at ×20 magnification.
# The conditions necessary for the induction of human progenitor cells to develop mineralised bone matrix in vitro have been previously described (Gronthos S, A C Zannettino, S J Hay, S Shi, S E Graves, A Kortesidis and P J Simmons. (2003). Molecular and cellular characterisation of highly purified stromal stem cells derived from human bone marrow. J Cell Sci 116:1827-1835). The osteoinductive media consists of alpha-MEM media supplemented with 2% (v/v) FCS, 1.8 mM KH2PO4, 10-7 dexamethasone sodium phosphate, 50 IU/ml penicillin, 50 μg/mL streptomycin, 1 mM Sodium Pyruvate, 100 μM L-Ascorbic acid 2-phosphate, 2 mM L-glutamine and 10 mM HEPES buffer. […]
# Total mineral content per well in the above cultures was assessed by measuring the calcium levels per total DNA in each well. […] The acid-solubilzed mineral 23 was transferred to a new 96-well plate and reacted with o-cresol-phthalein-complexone (Thermal Electron Corporation, USA) to form a purple dye that was measured at 570 nm using an EL 808 Ultra Microplate Reader. […] Absolute absorbance was determined by measuring against a series of DNA standards at 350 nm by LS55 Luminescence Spectrometer (Perkin Elmer).
# human progenitor cell = test: Viability after cryopreservation and thawing, MTT assay; conditions: FIG. 3
# Experimental: FIG. 3. Effects of different concentrations of Pentosan Polysulfate (PPS) on progenitor cell viability following cryopreservation in liquid nitrogen and rapidly thawing as described in FIG. 1. Cell viability was determined using the mitochondrial dehydrogenase MTT assay. Data shown=Means±SD *=p<0.05 relative to control values
# Murine Progenitor cells (cell lines C3H10T1/2 or ATDC5) purchased from RIKEN Cell Bank (Tsukuba, Japan) or human immunoselected Stro-1+ progenitor cells (Mesoblast Ltd, Melbourne, Australia) were seeded at a various cell densities over the range of 1.68×10^5-1.0×10^6 cells into 2 mL screw-capped centrifuge tubes containing in DMEM+10% FBS. In separate tubes a stock solution containing 2× the required concentrations of PPS dissolved in DMEM+20% FBS and 15% DMSO were prepared. These stock solutions were added to the cell cultures such that the final concentration of PPS was half that of the stock concentration and of FBS was 10% and DMSO was […]. Over several independent experiments the final concentrations of PPS in the final solutions ranged from 0.0-100 ug/ml (see figures for details). All concentrations of PPS used were examined in triplicated. Cells and the cryopreservation solutions containing the PPS were mixed gently for 5 mins and stored in liquid nitrogen. […] 90 ul×3 from each tube were transferred to a 96-well plate and the absorbance at 540 nm determined. […]
substance,measurement,setting,value
pentosan polysulfate [PPS],chondrogenic effect (proteoglycan synthesis),human progenitor cells,chondrogenic promoting effect
same,differentiation into osteoblasts/osteocytes,[1],suppressed differentiation into osteocytes
same,differentiation into osteoblasts/osteocytes,[1]; listed as polysulfated polysaccharides,suppress differentiation of progenitor cells to this cell phenotype
same,calcified deposits in cultures (photomicrographs),"[1]; osteoinductive conditions, FIG. 7B",no calcified deposits are present
same,cell viability after cryopreservation and thawing (MTT),"human progenitor cell; 168,000 cells, particularly at 1 and 2.5 μg/ml PPS",improved the viability of the cells
same,cell viability after cryopreservation and thawing (MTT),"human progenitor cell; 350,000 cells",not adversely affected
